According to publication PMC12610573, “New Chlormequat-Based Ionic Liquids as Plant Resistance Inducers” (Molecules, 2025):

How the values were obtained:
[1] = system: radish (Raphanus sativus) sprouts; assay: Phytotoxicity test on radish sprouts; type: in vivo; conditions: for Reduction in Sprout Mass: compared with untreated control; for Mass of 25 Sprouts: radish, 5 days, UTC 3.09 g; for Phytotoxic effect on radish sprout mass: versus control
Procedure: Twenty five seeds of radish (Raphanus sativus) were placed on a filter tissue in a Petri dish. […] Then, sprouts were weighted. All variants of treatment were tested together, with 3 replications (plates) in each of 2 cycles performed. Results were subjected to statistical analysis as described in Section 4.8.
(§1) Statistical significance of the effect of the treatments of plants with tested compounds on the phytotoxicity and SAR induction was assessed with the ANOVA test performed using the Statistica program StatSoft with software version 9.1 (StatSoft Sp. z o.o., Kraków, Poland). The statistical assumptions of normality and homogeneity of variances were verified prior to conducting the ANOVA tests. Differences between the means were estimated with Tukey’s HSD test at the significance level of p = 0.05.

[2] = system: Tobamovirus tabaci (tobacco mosaic virus, TMV) on Nicotiana tabacum cv. Xanthi; assay: SAR induction assay: necrotic area after TMV inoculation of sprayed tobacco; type: in vivo; conditions: for SAR Induction (percentage of necrotic area on leaves): TMV inoculation after 7 days, read 7 days later, UTC 34.54; for Percentage of necrotic spot coverage (leaf shown in supplementary figure): single leaf image; for pest or weed control at 125 µg/mL / pest or weed control at 250 µg/mL: topical, read-out: Reduction in Necrotic Area; for pest or weed control at 125 µg/mL / pest or weed control at 250 µg/mL / Reduction in Necrotic Area: compared with untreated control plants
Procedure: Plants of Nicotiana tabacum cv. Xanthi were grown under greenhouse conditions at 25 °C and 50% relative humidity, under natural daylight during the May–August growing season, with a natural photoperiod. The plants were sprayed with solutions containing the tested compounds.
In all experiments, the TMV SL-1 isolate Tobamovirus (TMV) was used. To obtain a viral inoculum, Nicotiana tabacum cv. Samsun plants were sap-inoculated with previously virus-infected plant material. After the appearance of disease symptoms on the infected plants (leaf mosaic), the virus was isolated by sucrose density gradient centrifugation with 0.01 M Tris-HCl, pH 7.0, to prepare the infectious inoculum. The concentration of virus in the obtained preparation was determined spectrophotometrically. The samples of TMV were stored at −20 °C until use.
The tested active substances at a given concentration were sprayed on tobacco plants with three fully developed leaves. The volume of working solution used was equal to 10 mL per plant. The compounds were dissolved in a water/propylene glycol solution (95/5, v/v). The plants of the untreated control variant were sprayed with a water/propylene glycol solution (95/5, v/v) that was used for the preparation of solutions of the tested compounds. After seven days, the plants were mechanically inoculated using purified viral preparations (0.01 ng/mL as described in [34]).
The plants were inoculated with the TMV inoculum at a concentration of 3.8 × 10^−4 ng per leaf. For each variant of treatment, 3 plants were sprayed, and 3 leaves of each plant were analyzed. The entire experiment was performed in 2 replicates. Necrotic areas on the leaves were determined using ImageJ software.
The surface of a leaf or an area with necrotic spots is represented by a set of pixels in the image, which are counted by the program. Reduction in necrotic area (ISAR) is expressed by the following formula:(1) ISAR=100−(At/Ac∗100) where At is the ratio of the area of necrotic spots caused by viral infection that appeared on the leaf treated with the test substance to the whole area of the leaf; Ac is the ratio of the area of the necrotic spots caused by viral infection that appeared on the leaf of the control plant to the whole area of the leaf.
as §1

[3] = Thermogravimetric analysis (TGA), thermal stability; conditions: TGA under nitrogen, 10 °C/min; for Thermal Stability T5%onset: 5% weight loss onset; for Thermal Stability Tonset: decomposition onset
Procedure: TGA was performed on a TGA Q50 (Texas Instruments, Dallas, TX, USA) under nitrogen. Samples (5–10 mg) were heated from 25 °C to 500 °C at 10 °C/min with an isothermal step at 85 °C for 10 min. T5%onset and Tonset values were recorded.

[4] = Solubility tests in representative solvents (Vogel protocol); conditions: 25 °C; for solubility: thermodynamic from solid
Procedure: The solubilities of the prepared ILs in ten representative solvents were determined according to the protocols from Vogel’s Textbook of Practical Organic Chemistry. The solvents chosen for the study were arranged in order of descending value of their Snyder polarity index: water—9.0, methanol—6.6, acetone—5.1, isopropanol—4.3, toluene—2.3, and hexane—0.0.

Row | Structure (SMILES) | Reduction in Sprout Mass ([1]; 125 mg/L) [%] | Mass of 25 Sprouts ([1]; 125 mg/L) | Reduction in Sprout Mass ([1]; 250 mg/L) [%] | Mass of 25 Sprouts ([1]; 250 mg/L) | SAR Induction (percentage of necrotic area on leaves) ([2]; 125 mg/L spray) | SAR Induction (percentage of necrotic area on leaves) ([2]; 250 mg/L spray) | pest or weed control at 125 µg/mL ([2]; 125 mg/L) [%] | pest or weed control at 250 µg/mL ([2]; 250 mg/L) [%] | also measured
1 | O=C(O)c1cc(Cl)ccc1O [5-chlorosalicylic acid] | 37.16 | 1.94 abc B g | 59.87 | 1.24 cd A g | 4.23 a B % | 3.28 ab AB % | 87.8 | 90.5 | Percentage of necrotic spot coverage (leaf shown in supplementary figure) ([2]; 125 mg/L): 2.98%; Percentage of necrotic spot coverage (leaf shown in supplementary figure) ([2]; 250 mg/L): 1.28%
2 | O=C(O)c1ccccc1O [Salicylic acid] | 29.77 | 2.17 cd B g | 63.27 | 1.14 bc A g | 26.60 fg C % | 25.06 g C % | 23 | 27.4 | Percentage of necrotic spot coverage (leaf shown in supplementary figure) ([2]; 125 mg/L): 23.67%; Percentage of necrotic spot coverage (leaf shown in supplementary figure) ([2]; 250 mg/L): 19.86%
3 | O=C(O)c1cccnc1 [Nicotinic acid] | 10.79 | 2.76 gh B |  | 2.63 j AB g | 27.69 fg C % | 22.07 g B % | 19.8 | 36.1 | 
4 | C[N+](C)(C)CCCl [[CC][Cl], Chlormequat chloride, reference compound] | 24.00 | 2.35 def B g |  | 2.08 fgh A |  |  |  |  | Thermal Stability T5%onset [3]: 255.0 °C; Thermal Stability Tonset [3]: 259.8 °C; Solubility in Isopropanol [4]: remained insoluble; solubility ([4]; organic solvent or mixture, Solubility in Acetone, Snyder polarity index 5.1): < 33.3 mg/mL; solubility ([4]; organic solvent or mixture, Solubility in Hexane, Snyder polarity index 0.0): < 33.3 mg/mL; solubility ([4]; organic solvent or mixture, Solubility in Isopropanol, Snyder polarity index 4.3): < 33.3 mg/mL; solubility ([4]; organic solvent or mixture, Solubility in Methanol, Snyder polarity index 6.6): > 100 mg/mL; solubility ([4]; organic solvent or mixture, Solubility in Toluene, Snyder polarity index 2.3): < 33.3 mg/mL; solubility ([4]; water, Solubility in Water, Snyder polarity index 9.0): > 100 mg/mL
5 | O=C(O)c1ccncc1 [Isonicotinic acid] | 29.07 | 2.19 cde B g | 42.83 | 1.77 e A g | 31.12 gh B % | 25.58 g A % | 9.9 | 26 | 
6 | O=C(O)c1ccc(Cl)cc1O [4-chlorosalicylic acid] | 46.55 | 1.65 a B g | 68.45 | 0.98 ab A g | 17.06 cd C % | 8.68 cde AB % | 50.6 | 74.9 | 
7 | O=C(O)c1cc(Cl)nc(Cl)c1 [2,6-dichloroisonicotinic acid] | 40.29 | 1.85 ab B g | 54.31 | 1.41 d A g | 18.15 cd B % | 14.90 f AB % | 47.5 | 56.9 | 
8 | C[N+](C)(C)CCCl.O=C([O-])c1ccncc1 [[CC][IsoNic]] | 15.70 | 2.60 fgh C | 35.65 | 1.99 efg AB | 24.51 ef A % | 21.48 g A % |  |  | Thermal Stability T5%onset [3]: 164.3 °C; Thermal Stability Tonset [3]: 85.3 °C; Reduction in Necrotic Area ([2]; 125 mg/L): 29.0%; Reduction in Necrotic Area ([2]; 250 mg/L): 37.8%
9 | O=C(O)c1cc(Cl)cc(Cl)c1O [3,5-dichlorosalicylic acid] | 32.96 | 2.07 bcd B g | 59.49 | 1.25 cd A g | 15.03 cd B % | 7.51 bcd A % | 56.5 | 78.3 | 
10 | C[N+](C)(C)CCCl.O=C([O-])c1cccnc1 [[CC][Nic]] | 8.20 | 2.84 hi B g | 26.16 | 2.28 hi A g | 19.70 de B % | 11.52 def A % |  |  | Thermal Stability T5%onset [3]: 166.9 °C; Thermal Stability Tonset [3]: 89.9 °C; Phytotoxic effect on radish sprout mass ([1]; 125 mg/L): no phytotoxic effect; Phytotoxic effect on radish sprout mass ([1]; 250 mg/L): significant decrease in the radish sprout mass; Reduction in Necrotic Area ([2]; 125 mg/L): 43.0%; Reduction in Necrotic Area ([2]; 250 mg/L): 66.7%
11 | O=C(O)c1cccc(Cl)c1O [3-chlorosalicylic acid] | 47.03 | 1.64 a B g | 72.65 | 0.85 a A g | 4.95 a B % | 2.59 a AB % | 85.7 | 92.5 | Percentage of necrotic spot coverage (leaf shown in supplementary figure) ([2]; 125 mg/L): 2.62%; Percentage of necrotic spot coverage (leaf shown in supplementary figure) ([2]; 250 mg/L): 2.30%
